# Laboratory results: ChEMBL document CHEMBL1201862, “PubChem BioAssay data set” (2004)
#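 Five compound concentrations were applied to cells in 96-well plates for 48 hours; endpoints were derived by simple linear interpolation of the resulting dose-response curve. GI50: concentration for 50% inhibition of growth.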 Active and inactive are the calls of the source. No stated cut-off is given here; in the data, active = GI50 up to about 1.1 µM and inactive = higher.
# Experiments:
# Assay in all cases: NCI tumour cell line growth inhibition, 48 h
# SNB-19 = test system: SNB-19
# SF-295 = test system: SF-295
# OVCAR-5 = test system: OVCAR-5
# NCI-H460 = test system: NCI-H460
# COLO 205 = test system: COLO 205
# HT-29 = test system: HT-29
# HOP-62 = test system: HOP-62
# SN12C = test system: SN12C
# NCI-H23 = test system: NCI-H23
# LOX IMVI = test system: LOX IMVI
# A498 = test system: A498
# MCF7 = test system: MCF7
# KM12 = test system: KM12
# SW-620 = test system: SW-620
# SF-268 = test system: SF-268
# 786-0 = test system: 786-0
# UACC-257 = test system: UACC-257
# SR = test system: SR
# MDA-N = test system: MDA-N
# CAKI-1 = test system: CAKI-1
Structure (SMILES),GI50 (SNB-19),GI50 (SF-295),GI50 (OVCAR-5),GI50 (NCI-H460),GI50 (COLO 205),GI50 (HT-29),GI50 (HOP-62),GI50 (SN12C),GI50 (NCI-H23),GI50 (LOX IMVI),GI50 (A498),GI50 (MCF7),GI50 (KM12),GI50 (SW-620),GI50 (SF-268),GI50 (786-0),GI50 (UACC-257),GI50 (SR),GI50 (MDA-N),GI50 (CAKI-1)
O=C1CC(NC(=O)C(F)(F)F)c2c1csc2Br (centres undefined),> 100 µM (inactive),5.77 µM (inactive),2.24 µM (inactive),1.51 µM (inactive),> 100 µM (inactive),> 100 µM (inactive),> 100 µM (inactive),68.4 µM (inactive),> 100 µM (inactive),60.3 µM (inactive),45.3 µM (inactive),2.94 µM (inactive),3.03 µM (inactive),31.8 µM (inactive),0.678 µM (active),26.5 µM (inactive),> 100 µM (inactive),36.9 µM (inactive),33.5 µM (inactive),–
CC(/C=C/C=C\C=C\C=C(/C)C(=O)NC(C)CO)=C\C(C)C(O)/C(C)=C/C(C)CCc1ccccc1 (centres undefined),15.3 µM (inactive),0.0236 µM (active),10.9 µM (inactive),3.85 µM (inactive),13.7 µM (inactive),11.6 µM (inactive),12.4 µM (inactive),12.8 µM (inactive),< 0.01 µM (active),–,12.6 µM (inactive),1.84 µM (inactive),2.32 µM (inactive),13.6 µM (inactive),13.5 µM (inactive),13.4 µM (inactive),0.0359 µM (active),1.14 µM (inactive),12.2 µM (inactive),14.2 µM (inactive)
COC(=O)C(Cc1ccc2c(c1)CCC2)Cc1ccc2c(c1)CCC2,> 100 µM (inactive),36.6 µM (inactive),> 100 µM (inactive),53.2 µM (inactive),92.7 µM (inactive),29.4 µM (inactive),> 100 µM (inactive),> 100 µM (inactive),29.6 µM (inactive),20.8 µM (inactive),38.1 µM (inactive),31.5 µM (inactive),37.3 µM (inactive),> 100 µM (inactive),48.6 µM (inactive),78.2 µM (inactive),37 µM (inactive),57 µM (inactive),59.3 µM (inactive),–
[N-]=[N+]=Nc1cc(=O)[nH]nc1-c1ccccc1,–,> 100 µM (inactive),–,> 100 µM (inactive),> 100 µM (inactive),> 100 µM (inactive),> 100 µM (inactive),> 100 µM (inactive),> 100 µM (inactive),> 100 µM (inactive),> 100 µM (inactive),> 100 µM (inactive),> 100 µM (inactive),> 100 µM (inactive),> 100 µM (inactive),> 100 µM (inactive),> 100 µM (inactive),> 100 µM (inactive),> 100 µM (inactive),–
CC(C)(C)OC(=O)N1CCc2[nH][nH]c(=O)c2C1,> 100 µM (inactive),> 100 µM (inactive),–,> 100 µM (inactive),> 100 µM (inactive),> 100 µM (inactive),> 100 µM (inactive),> 100 µM (inactive),> 100 µM (inactive),–,> 100 µM (inactive),> 100 µM (inactive),> 100 µM (inactive),> 100 µM (inactive),> 100 µM (inactive),> 100 µM (inactive),> 100 µM (inactive),> 100 µM (inactive),> 100 µM (inactive),> 100 µM (inactive)
CSC1=NN=C(SC)NN1,0.191 µM (active),0.198 µM (active),0.179 µM (active),0.196 µM (active),0.198 µM (active),0.173 µM (active),0.201 µM (active),0.18 µM (active),0.285 µM (active),0.15 µM (active),–,0.201 µM (active),0.192 µM (active),0.17 µM (active),0.189 µM (active),0.182 µM (active),0.131 µM (active),0.0204 µM (active),0.18 µM (active),0.173 µM (active)
C[n+]1c(-c2ccc(/C=N/NC(=O)C(=O)N/N=C/c3ccc(-c4cn5ccsc5[n+]4C)cc3)cc2)cn2ccsc21,> 100 µM (inactive),53.5 µM (inactive),> 100 µM (inactive),> 100 µM (inactive),> 100 µM (inactive),> 100 µM (inactive),> 100 µM (inactive),> 100 µM (inactive),–,–,–,> 100 µM (inactive),> 100 µM (inactive),> 100 µM (inactive),> 100 µM (inactive),> 100 µM (inactive),> 100 µM (inactive),> 100 µM (inactive),47.8 µM (inactive),–
Cc1cn(C2CC(COCc3ccccc3)N(CCO[Si](C)(C)C(C)(C)C)O2)c(=O)[nH]c1=O (centres undefined),13.6 µM (inactive),16.4 µM (inactive),17.7 µM (inactive),18.5 µM (inactive),15.1 µM (inactive),15.4 µM (inactive),17.3 µM (inactive),11 µM (inactive),16.2 µM (inactive),–,15.2 µM (inactive),18.5 µM (inactive),17.3 µM (inactive),15.5 µM (inactive),21.3 µM (inactive),27.9 µM (inactive),–,35.1 µM (inactive),14.6 µM (inactive),18.5 µM (inactive)
CN(C)c1ccc(C=C2C(=O)N(c3ccccc3)N(c3ccccc3)C2=O)cc1,74.3 µM (inactive),63.4 µM (inactive),> 100 µM (inactive),–,> 100 µM (inactive),72.8 µM (inactive),> 100 µM (inactive),> 100 µM (inactive),> 100 µM (inactive),76.6 µM (inactive),> 100 µM (inactive),> 100 µM (inactive),74.8 µM (inactive),> 100 µM (inactive),> 100 µM (inactive),71.1 µM (inactive),–,> 100 µM (inactive),> 100 µM (inactive),–
Oc1c(C2=NNC(c3cccs3)C2)ccc2ccccc12 (centres undefined),–,18.2 µM (inactive),29.6 µM (inactive),14.8 µM (inactive),19.5 µM (inactive),17.9 µM (inactive),26.9 µM (inactive),19.4 µM (inactive),28.5 µM (inactive),–,26.2 µM (inactive),15.6 µM (inactive),12 µM (inactive),24.5 µM (inactive),10.9 µM (inactive),32.9 µM (inactive),30.1 µM (inactive),8.89 µM (inactive),16.5 µM (inactive),40.6 µM (inactive)
COc1ccc(C(C#N)NC23CC4CC(CC(C4)C2)C3)cc1 (centres undefined),> 100 µM (inactive),> 100 µM (inactive),> 100 µM (inactive),> 100 µM (inactive),> 100 µM (inactive),> 100 µM (inactive),> 100 µM (inactive),> 100 µM (inactive),> 100 µM (inactive),> 100 µM (inactive),–,> 100 µM (inactive),> 100 µM (inactive),> 100 µM (inactive),> 100 µM (inactive),> 100 µM (inactive),> 100 µM (inactive),> 100 µM (inactive),> 100 µM (inactive),> 100 µM (inactive)
